Measured values as given in ChEMBL document CHEMBL1201862, “PubChem BioAssay data set” (2004).
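Briefly, cells in 96-well plates were exposed to five compound concentrations for 48 h, and endpoints were estimated by linear interpolation. At the GI50, growth is halved.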 Activity calls are given as the source filed them. Rule as the data show it: active = GI50 up to about 1.1 µM and inactive = higher.

Columns and labels:
Experiment in all cases: DTP human tumour cell line panel, 48 h
NCI-H23 = system: NCI-H23
Malme-3M = system: Malme-3M
SNB-19 = system: SNB-19
SN12C = system: SN12C
OVCAR-4 = system: OVCAR-4
SNB-78 = system: SNB-78
SF-295 = system: SF-295
UACC-62 = system: UACC-62
ACHN = system: ACHN
UO-31 = system: UO-31
HOP-92 = system: HOP-92
A549 = system: A549
SNB-75 = system: SNB-75
TK-10 = system: TK-10
HT-29 = system: HT-29
786-0 = system: 786-0
UACC-257 = system: UACC-257

SMILES	GI50 (NCI-H23)	GI50 (Malme-3M)	GI50 (SNB-19)	GI50 (SN12C)	GI50 (OVCAR-4)	GI50 (SNB-78)	GI50 (SF-295)	GI50 (UACC-62)	GI50 (ACHN)	GI50 (UO-31)	GI50 (HOP-92)	GI50 (A549)	GI50 (SNB-75)	GI50 (TK-10)	GI50 (HT-29)	GI50 (786-0)	GI50 (UACC-257)
O=C1Nc2ccc(Br)cc2/C1=N/Nc1ccc([N+](=O)[O-])cc1	22 µM (inactive)	24.1 µM (inactive)	19.3 µM (inactive)	19.3 µM (inactive)	17.3 µM (inactive)	18.9 µM (inactive)	11.6 µM (inactive)	27.9 µM (inactive)	18.5 µM (inactive)	30.1 µM (inactive)	13.6 µM (inactive)	19 µM (inactive)	19.3 µM (inactive)	18.3 µM (inactive)	57.9 µM (inactive)	11.4 µM (inactive)	20.3 µM (inactive)
COc1ccc2oc(C(=O)O)c3c2c1CCC3CCC(=O)O (configuration not stated)	> 100 µM (inactive)	> 100 µM (inactive)	> 100 µM (inactive)	> 100 µM (inactive)	> 100 µM (inactive)	> 100 µM (inactive)	> 100 µM (inactive)	> 100 µM (inactive)	> 100 µM (inactive)	> 100 µM (inactive)	> 100 µM (inactive)	> 100 µM (inactive)	> 100 µM (inactive)	> 100 µM (inactive)	> 100 µM (inactive)	> 100 µM (inactive)	> 100 µM (inactive)
CCCCCCCCCCC/C(=N/O)c1ccc(O)c2ncccc12	10.4 µM (inactive)	2.47 µM (inactive)	5.74 µM (inactive)		2.61 µM (inactive)	4.55 µM (inactive)	2.71 µM (inactive)		2.21 µM (inactive)	2.8 µM (inactive)	0.275 µM (active)	5.69 µM (inactive)	2.52 µM (inactive)	7.35 µM (inactive)	4.11 µM (inactive)	10.6 µM (inactive)	3.25 µM (inactive)
O=C1c2ccccc2C2(O)Oc3cccc(O)c3C12O (configuration not stated)	> 100 µM (inactive)	> 100 µM (inactive)	> 100 µM (inactive)	> 100 µM (inactive)	> 100 µM (inactive)	> 100 µM (inactive)	> 100 µM (inactive)	62.5 µM (inactive)	> 100 µM (inactive)	> 100 µM (inactive)	> 100 µM (inactive)	> 100 µM (inactive)	> 100 µM (inactive)	> 100 µM (inactive)	> 100 µM (inactive)	> 100 µM (inactive)	> 100 µM (inactive)
N=C(N)NS(=O)(=O)c1ccc(Nc2c3ccccc3nc3c(C(=O)N4CCN(CCO)CC4)cccc23)cc1	> 100 µM (inactive)	> 100 µM (inactive)	> 100 µM (inactive)	> 100 µM (inactive)	> 100 µM (inactive)	> 100 µM (inactive)	> 100 µM (inactive)	> 100 µM (inactive)	> 100 µM (inactive)	> 100 µM (inactive)	> 100 µM (inactive)	> 100 µM (inactive)	> 100 µM (inactive)	> 100 µM (inactive)	> 100 µM (inactive)	> 100 µM (inactive)	> 100 µM (inactive)
COc1ccc2nc3cc(Cl)ccc3c(NCCC(=O)OCC(O)C(O)C(O[C@H](C)C(=O)NC(C)C(=O)NC(CCC(N)=O)C(=O)OCc3ccccc3)C(C=O)NC(C)=O)c2c1 (some centres not stated)	14.4 µM (inactive)	> 100 µM (inactive)	24.7 µM (inactive)	16.1 µM (inactive)	20 µM (inactive)	32.5 µM (inactive)	18.2 µM (inactive)	17.9 µM (inactive)	18.1 µM (inactive)	20.5 µM (inactive)	17.8 µM (inactive)	17.4 µM (inactive)	16.1 µM (inactive)	22.8 µM (inactive)	17.8 µM (inactive)	16.9 µM (inactive)	95.7 µM (inactive)
Fc1cccc(C2SCc3nc4ccccc4n32)c1F (configuration not stated)	49.7 µM (inactive)	38 µM (inactive)	> 100 µM (inactive)	89.7 µM (inactive)	42.1 µM (inactive)	32.6 µM (inactive)	30.8 µM (inactive)	63.5 µM (inactive)	48.5 µM (inactive)	41.9 µM (inactive)	23 µM (inactive)	69 µM (inactive)	> 100 µM (inactive)	42 µM (inactive)	79.4 µM (inactive)	92.9 µM (inactive)	32.7 µM (inactive)
O=C(Nc1cc(Cl)c(Cl)cc1Cl)C(=O)C(C(=O)c1ccc2ccccc2c1)C1OC(=O)c2ccccc21 (configuration not stated)	3.66 µM (inactive)	13.2 µM (inactive)	11.6 µM (inactive)	18.2 µM (inactive)	> 10 µM (inactive)	8.43 µM (inactive)	6.59 µM (inactive)	12.1 µM (inactive)	16.7 µM (inactive)	18 µM (inactive)	1.96 µM (inactive)	19.1 µM (inactive)			18.2 µM (inactive)	8.11 µM (inactive)	14.4 µM (inactive)
